Reference: publication PMC7926352, “Synthesis, Characterization and In Vitro Evaluation of Novel 5-Ene-thiazolo[3,2-b][1,2,4]triazole-6(5H)-ones as Possible Anticancer Agents” (Molecules, 2021)

Assays:
[1] = tested on: Prostate Cancer cell lines; parameters: LC50, values range inside panel: unit not given beside the values
IGROV1 = assay type: cell-based, human; settings: IGROV1, Ovarian Cancer
[2] = tested on: Ovarian Cancer cell lines
Leukemia cell lines = tested on: Leukemia cell lines; parameters: LC50, values range inside panel: unit not given beside the values
CNS Cancer cell lines = tested on: CNS Cancer cell lines; parameters: LC50, values range inside panel: unit not given beside the values

For “Ethyl(Z)-4-(3-(4-chloro-2-((6-oxothiazolo[3,2-b][1,2,4]triazol-5(6H)-ylidene)methyl)phenyl)propanamido)benzoate [Compound 2i]”, the CC50 (UACC-62) was 51.3 µM, the CC50 (UACC-257) was 63.1 µM and the CC50 (SK-MEL-2) was 77.6 µM. For the same substance, the CC50 (RXF 393) was 58.9 µM, the CC50 (SF-268) was > 100 µM and the CC50 (ACHN) was 53.7 µM. The CC50 (K-562) was > 100 µM, the CC50 (DU-145) was 36.3 µM and the CC50 (OVCAR-5) was 58.9 µM. The CC50 (HOP-92) was 83.2 µM, the CC50 (SN12C) was 58.9 µM and the CC50 (MDA-MB-435) was > 100 µM. For the same substance, the CC50 (M14) was 58.9 µM, the CC50 (HOP-62) was 53.7 µM and the CC50 (CCRF-CEM) was > 100 µM. The CC50 (OVCAR-8) was 85.1 µM, the CC50 (SK-OV-3) was 61.6 µM and the CC50 (A498) was 56.2 µM. For the same substance, the CC50 (RPMI-8226) was 95.5 µM, the CC50 (OVCAR-4) was > 100 µM and the CC50 (SF-295) was 51.3 µM. The CC50 [1] was 68.2 µM, the “LC50, values range inside panel” value [1] was 36.30– >100 and the CC50 (NCI-H522) was 72.4 µM. The CC50 (TK-10) was 51.3 µM, the CC50 (Breast Cancer cell lines) was 73.2 µM and the CC50 (SR) was > 100 µM. It also gave a CC50 (SK-MEL-28) of 49 µM, a GI50 (IGROV1) of 6.6 µM and a TGI (IGROV1) of 20.89 µM. For the same substance, the CC50 (BT-549) was 60.2 µM, the CC50 [2] was 68.7 µM and the CC50 (Renal Cancer cell lines) was 55 µM. For the same substance, the CC50 (HCT-116) was 55 µM, the CC50 (HS 578T) was 60.2 µM and the CC50 (UO-31) was 55 µM. For the same substance, the CC50 (PC-3) was > 100 µM, the CC50 (MOLT-4) was > 100 µM and the CC50 (HT29) was 49 µM. For the same substance, the CC50 (SF-539) was 50.1 µM, the CC50 (Melanoma cell lines) was 42.6 to 77.6 µM and the CC50 (U251) was 43.6 µM. For the same substance, the CC50 (NCI/ADR-RES) was > 100 µM, the CC50 (SW-620) was 46.8 µM and the CC50 (CAKI-1) was 55 µM. For the same substance, the CC50 (SK-MEL-5) was 46.8 µM, the CC50 (Leukemia cell lines) was 99.2 µM and the “LC50, values range inside panel” value (Leukemia cell lines) was 95.49– >100. The CC50 (CNS Cancer cell lines) was 66.2 µM, the “LC50, values range inside panel” value (CNS Cancer cell lines) was 43.65– >100 and the CC50 (OVCAR-3) was 55 µM.
